Assay results taken from patent US12077503B2, “Substituted cyclic amides and their use as herbicides” (FMC CORPORATION, priority 2015, dated 2024).
Read-outs that look alike come from different tables or passages of the source.

Tests used:
Type in all cases: in vivo
[1] = system: ryegrass, Italian (Italian ryegrass, Lolium multiflorum); test: Test A preemergence; details: Lolium multiflorum, pre-emergence, 240 h, preemergence, 0 to 100 scale where 0 is no effect and 100 is complete control, read-out: Ryegrass, Italian plant response rating; for pest or weed control at 125 g/ha: 125 g ai/ha, visual injury rating, approximately 10 d; for pest or weed control at 500 g/ha: 500 g ai/ha
Procedure, shortened: (§1)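 Treatment is preemergence as a directed soil spray after planting, or postemergence at the one- to two-leaf stage, with test chemical in a non-phytotoxic solvent mixture plus surfactant. Plants stay in the greenhouse about 10 d before visual injury scoring on a 0 to 100 scale versus untreated controls.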

[2] = system: barnyardgrass (Echinochloa crus-galli); test: Test A preemergence; details: Echinochloa crus-galli, pre-emergence, 240 h, preemergence, 0 to 100 scale where 0 is no effect and 100 is complete control, read-out: Barnyardgrass plant response rating; for pest or weed control at 125 g/ha: 125 g ai/ha, visual injury rating, approximately 10 d; for pest or weed control at 500 g/ha: 500 g ai/ha
Procedure, shortened: as §1

[3] = system: giant foxtail (Setaria faberii); test: Test A preemergence; details: Setaria faberi, pre-emergence, 240 h, preemergence, 0 to 100 scale where 0 is no effect and 100 is complete control, read-out: Foxtail, Giant plant response rating; for pest or weed control at 125 g/ha: 125 g ai/ha, visual injury rating, approximately 10 d; for pest or weed control at 500 g/ha: 500 g ai/ha
Procedure, shortened: as §1

[4] = system: ragweed (common ragweed, Ambrosia elatior); test: Test A preemergence; details: Ambrosia artemisiifolia, pre-emergence, 240 h, preemergence, 0 to 100 scale where 0 is no effect and 100 is complete control, read-out: Ragweed plant response rating; for pest or weed control at 500 g/ha: 500 g ai/ha; for pest or weed control at 125 g/ha: 125 g ai/ha, visual injury rating, approximately 10 d
Procedure, shortened: as §1

Kochia (Kochia scoparia) = test: Test A preemergence; details: Bassia scoparia, pre-emergence, 240 h, preemergence, 0 to 100 scale where 0 is no effect and 100 is complete control, read-out: Kochia plant response rating; for pest or weed control at 125 g/ha: 125 g ai/ha, visual injury rating, approximately 10 d; for pest or weed control at 500 g/ha: 500 g ai/ha
Procedure, shortened: as §1

[5] = system: pigweed (Amaranthus retroflexus); test: Test A preemergence; details: Amaranthus retroflexus, pre-emergence, 240 h, preemergence, 0 to 100 scale where 0 is no effect and 100 is complete control, read-out: Pigweed plant response rating; for pest or weed control at 125 g/ha: 125 g ai/ha, visual injury rating, approximately 10 d; for pest or weed control at 500 g/ha: 500 g ai/ha
[6] = system: ducksalad (Heteranthera limosa); test: Test B flooded paddy test; details: Heteranthera limosa, 250 g ai/ha, Flood; 0 to 100 scale where 0 is no effect and 100 is complete control; read-out: Ducksalad plant response rating
Procedure, shortened: (§2)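 Compound goes directly into floodwater once pots are flooded 3 cm above soil, targeting plants at two leaves; the water depth is then held for the test duration. Plants sit 13–15 d in a greenhouse and are rated visually, 100 denoting complete control.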

rice (Oryra sativa) = test: Test B flooded paddy test; details: Oryza sativa, 250 g ai/ha, Flood; 0 to 100 scale where 0 is no effect and 100 is complete control; read-out: Rice plant response rating
Procedure, shortened: as §2

[7] = system: barnyardgrass (Echinochloa crus-galli); test: Test B flooded paddy test; details: Echinochloa crus-galli, 250 g ai/ha, Flood; 0 to 100 scale where 0 is no effect and 100 is complete control; read-out: Barnyardgrass plant response rating
Procedure, shortened: as §2

[8] = system: sedge, umbrella (small-flower umbrella sedge, Cyperus difformis); test: Test B flooded paddy test; details: Cyperus difformis, 250 g ai/ha, Flood; 0 to 100 scale where 0 is no effect and 100 is complete control; read-out: Sedge, Umbrella plant response rating
Procedure, shortened: as §2

[9] = system: wheat (Triticum aestivum); test: Test A postemergence; details: Triticum aestivum, post-emergence, 240 h; for plant injury at 125 g/ha: 125 g ai/ha, postemergence, visual injury vs untreated controls after approx. 10 d, 0 = no effect, 100 = complete control, read-out: Wheat plant response rating (0 to 100 scale); for plant injury at 500 g/ha: Postemergence, 500 g ai/ha, visual injury, 0 to 100 scale (0 no effect, 100 complete control), approx. 10 d, read-out: Plant response rating, Wheat
Procedure, shortened: as §1

[10] = system: barnyardgrass (Echinochloa crus-galli); test: Test A postemergence; details: Echinochloa crus-galli, post-emergence, 240 h; for pest or weed control at 125 g/ha: 125 g ai/ha, visual injury vs untreated controls after approx. 10 d, 0 = no effect, 100 = complete control, read-out: Barnyardgrass plant response rating (0 to 100 scale); for pest or weed control at 500 g/ha: 500 g ai/ha
Procedure, shortened: as §1

[11] = system: giant foxtail (Setaria faberii); test: Test A postemergence; details: Setaria faberi, post-emergence, 240 h; for pest or weed control at 125 g/ha: 125 g ai/ha, visual injury vs untreated controls after approx. 10 d, 0 = no effect, 100 = complete control, read-out: Foxtail, Giant plant response rating (0 to 100 scale); for pest or weed control at 500 g/ha: 500 g ai/ha
Procedure, shortened: as §1

[12] = system: Galium (catchweed bedstraw, Galium aparine); test: Test A postemergence; details: Galium, post-emergence, 240 h; for pest or weed control at 125 g/ha: 125 g ai/ha, visual injury vs untreated controls after approx. 10 d, 0 = no effect, 100 = complete control, read-out: Galium plant response rating (0 to 100 scale); for pest or weed control at 500 g/ha: 500 g ai/ha
Procedure, shortened: as §1

[13] = Postemergence, visual injury, 0 to 100 scale (0 no effect, 100 complete control), approx. 10 d, read-out: Plant response rating, Barnyardgrass
[14] = Postemergence, visual injury, 0 to 100 scale (0 no effect, 100 complete control), approx. 10 d, read-out: Plant response rating, Foxtail, Giant
[15] = Postemergence, visual injury, 0 to 100 scale (0 no effect, 100 complete control), approx. 10 d, read-out: Plant response rating, Galium

| Compound | pest or weed control at 125 g/ha [1] [%] | pest or weed control at 500 g/ha [1] [%] | pest or weed control at 125 g/ha [2] [%] | pest or weed control at 500 g/ha [2] [%] | pest or weed control at 125 g/ha [3] [%] | pest or weed control at 500 g/ha [3] [%] | pest or weed control at 500 g/ha [4] [%] | pest or weed control at 125 g/ha (Kochia (Kochia scoparia)) [%] | pest or weed control at 500 g/ha (Kochia (Kochia scoparia)) [%] | pest or weed control at 125 g/ha [5] [%] | pest or weed control at 500 g/ha [5] [%] | pest or weed control at 250 g/ha [6] [%] | pest or weed control at 250 g/ha (rice (Oryra sativa)) [%] | pest or weed control at 250 g/ha [7] [%] | pest or weed control at 250 g/ha [8] [%] | plant injury at 125 g/ha [9] [%] | pest or weed control at 125 g/ha ([10]; postemergence) [%] | pest or weed control at 125 g/ha ([11]; postemergence) [%] | pest or weed control at 125 g/ha ([12]; postemergence) [%] | pest or weed control at 125 g/ha [4] [%] | also measured |
| --- | --- | --- | --- | --- | --- | --- | --- | --- | --- | --- | --- | --- | --- | --- | --- | --- | --- | --- | --- | --- | --- |
| Cc1cc([C@H]2CNC(=O)[C@@H]2C(=O)Nc2ccccc2C(F)(F)F)ccc1Cl [Compound 1245] | 0 | 60 | 50 | 80 | 80 | 90 | 20 | 0 | 20 | 0 | 0 | 90 | 0 | 0 | 0 | 0 | 40 | 20 | 30 | – | pest or weed control at 500 g/ha ([10]; postemergence, 0 to 100 scale, 0 is no effect, 100 is complete control, read-out: Barnyardgrass plant response rating): 90%; pest or weed control at 500 g/ha ([11]; postemergence, 0 to 100 scale, 0 is no effect, 100 is complete control, read-out: Foxtail, Giant plant response rating): 60%; pest or weed control at 500 g/ha ([12]; postemergence, 0 to 100 scale, 0 is no effect, 100 is complete control, read-out: Galium plant response rating): 50% |
| Cc1ccc([C@H]2CNC(=O)[C@@H]2C(=O)Nc2c(F)cccc2F)cc1C [Compound 1247] | 0 | 20 | 70 | 90 | 20 | 80 | 0 | 0 | 30 | 0 | 0 | 55 | 0 | 20 | 0 | 0 | 40 | 0 | 0 | 0 | plant injury at 500 g/ha [9]: 0%; pest or weed control at 500 g/ha [10, 13]: 70%; pest or weed control at 500 g/ha [11, 14]: 30%; pest or weed control at 500 g/ha [12, 15]: 20% |
| CSc1ccccc1NC(=O)[C@H]1C(=O)N(C)C[C@@H]1c1cccc(C(F)(F)F)c1 [Compound 1249] | 30 | 100 | 100 | 100 | 100 | 100 | 70 | – | 90 | 80 | 90 | 100 | 0 | 60 | 0 | 50 | 100 | 80 | 50 | 30 | plant injury at 500 g/ha [9]: 70%; pest or weed control at 500 g/ha [10, 13]: 100%; pest or weed control at 500 g/ha [11, 14]: 80%; pest or weed control at 500 g/ha [12, 15]: 50% |
